Reference: publication PMC6105827, “Antitrypanosomal 8-Hydroxy-Naphthyridines Are Chelators of Divalent Transition Metals” (Antimicrobial Agents and Chemotherapy, 2018)

Assay: Spectrophotometric UV-Vis titration and Job's plot of binding to divalent cations
Assay type: physicochemical
Method: UV-visible (UV-Vis) titrations were carried out essentially as described previously ([65], [66]). Aliquots of metal divalent cations (concentrated stocks were made initially in water and then diluted in methanol) were added to a fixed concentration of 50 μM 8-HNT compound in methanol. After each aliquot addition, the incubation mixture was left to stabilize for 5 min at 25°C prior to scanning. Wavelength scanning was carried out at between 260 and 510 nm by using a UV-2401 PC UV-Vis spectrophotometer (Shimadzu). For Job's plot analyses ([66]), the combined concentration of 8-HNT and cation was fixed at 200 μM, and only the molar ratio of cation versus 8-HNT compound varied. Changes of the absorption at 475, 390, and 375 nm were indicative of cation complex formation with compounds 1 to 3, respectively. Specific absorbance at these wavelengths was determined and plotted against the molar ratio of compound to cation to determine complex stoichiometry ([66]).

Q: For `Cc1nnc(-c2nc(NCc3ccc(Cl)cc3)c3cccnc3c2O)[nH]1` [Compound 1], which “Zn^2+ concentration at which binding is saturable” value (50 μM compound, absorbance at 475 nm) is on record?
A: 25 µM

Q: What about the “Job's plot intercept, molar fraction (compound to Zn^2+)” value (combined concentration 200 μM in methanol, absorbance 475/390/375 nm) of the same molecule?
A: 0.34
